Patent US10640545B2 (THE GOVERNORS OF THE UNIVERSITY OF ALBERTA, priority 2017, dated 2020)
Entries after “also recorded” stand apart in the source; their conditions may differ. *1 amine or outer side, *2 acyl side, *3 side chain or, on linkers, in order; H or OH if unused. Where a SMILES comes first, the peptide text is derived from it. [ ]: non-standard residue; d: D form. Phe(4-Br) = N[C@@H](Cc1ccc(Br)cc1)C(=O)O; azaLeu = CC(C)CN(N[*:1])C(=O)[*:2]; pGlu = O=C1CC[C@@H](C(=O)O)N1; αMeL = CC(C)C[C@](C)(N)C(=O)O; Nle = CCCC[C@H](N)C(=O)O; Aib = CC(C)(N)C(=O)O

Tests used:
[1] = tested on: recombinant human neprilysin (rhNEP, Sino Biological); assay: rhNEP diluted in Tris buffer (100 mM Tris, 100 mM NaCl, 10 μM ZnCl2, pH 7.5), 3.1 nM final concentration; settings: 37° C., up to 72 h
[2] = molecular target: T1, wild-type rat apelin receptor (Rattus norvegicus, UniProt Q9JHG3); assay: Radioligand binding, displacement of [125I]-pyr-1-apelin-13 on CHO cell membranes; settings: for Ki: displacement of [125I]-pyr-1-apelin-13 (0.2 nM), CHO membranes, rat apelin receptor-EGFP, means ± SE, read-out: Affinity Ki; for receptor binding affinity (in words): rat apelin receptor
T1 construct: expressed in transfected cells
T1 sequence (Q9JHG3 1-377): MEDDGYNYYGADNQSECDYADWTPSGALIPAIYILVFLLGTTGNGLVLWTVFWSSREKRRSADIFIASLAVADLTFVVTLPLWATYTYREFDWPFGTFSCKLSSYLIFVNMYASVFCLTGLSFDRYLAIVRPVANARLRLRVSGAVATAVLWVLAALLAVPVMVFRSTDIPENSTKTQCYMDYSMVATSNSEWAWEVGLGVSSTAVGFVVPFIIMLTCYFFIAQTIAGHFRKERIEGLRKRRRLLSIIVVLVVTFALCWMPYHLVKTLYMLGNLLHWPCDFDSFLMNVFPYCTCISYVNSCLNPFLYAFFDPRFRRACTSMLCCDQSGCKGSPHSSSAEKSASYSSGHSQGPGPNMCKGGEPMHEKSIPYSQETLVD
Experimental: This experiment evaluated the ability of peptides of the present embodiments to bind to the wild-type rat apelin receptor, in order to examine the impact of synthetic modification within the critical RPRL motif of the apelin peptides.
Membrane preparations from CHO cells stably expressing the wild-type rat apelin receptor-EGFP were prepared as previously described (Gerbier et al., New Structural Insights Into The Apelin Receptor: Identification Of Key Residues For Apelin binding; FASEB J. 2015, 29, 314-322; Iturrioz et. al., Development Of Original Metabolically-Stable Apelin-17 Peptides With Diuretic And Cardiovascular Effects; FASEB J. 2017, 31, 687-700.) Crude membrane preparations (1 μg total mass of membranes/assay) were incubated for 3 h at 20° C. with 0.2 nM [^125I]-pyr-1-apelin-13 (monoiodinated on Lys^8 with Bolton-Hunter reagent, Perkin Elmer, Wellesley, Mass., USA) in binding buffer (50 mM HEPES, 5 mM MgCl2 1149 pH 7.5, BSA 1%) alone or in presence of the different compounds at various concentrations. The reaction was stopped by adding 4 mL of cold binding buffer, filtered on Whatman GF/C filters and washed with 5 mL of cold binding buffer. Radioactivity was then counted using a Wizard 1470 Wallac gamma counter (Perkin Elmer, Turku, Finland). Binding experiment data were analyzed with Graph Pad Prism.

anesthetized mice = assay: Blood pressure assay in anesthetized mice; assay type: in vivo; settings: 1.4 μM/kg body weight injected; for blood pressure lowering (hypotensive) effect: SBP, DBP, MABP
Experimental: Synthetic peptides 8-19 were tested for blood pressure lowering abilities in anesthetized mice. Apelin peptides were injected through […], monitoring blood pressure (BP) and heart rate (HR) over 60 minutes.
Mice were anaesthetized with 1.5% isoflurane/oxygen, and body temperature was monitored and maintained at 36° C. by a heating pad. The aorta was cannulated via the right carotid artery using a PV loop catheter (Model 1.2F from Scisense, Transonic) in order to continuously record arterial blood pressure and heart rate (LabScribe 2.0, Scisense). […] Results are reported as systolic blood pressure (SBP), diastolic blood pressure (DBP), mean arterial blood pressure (MABP) and heart rate (HR).
Apelin peptides 11, 56-59 as well as the KLKB1-cleavage fragments 54 and 55 were tested for blood pressure lowering abilities in anesthetized mice.
Mice were anesthetized with 1.5% isoflurane/oxygen, and body temperature was monitored and maintained at 36° C. by a heating pad. The aorta was cannulated via the right carotid artery using a PV loop catheter (model 1.2F from Scisense, Transonic) in order to continuously record arterial blood pressure and heart rate (LabScribe 2.0, Scisense). Compounds 11, and 54-59 or 55-59 (1.4 μM/kg body weight) or the same volume of saline was injected via the right jugular vein. Results are reported as systolic blood pressure (SBP), diastolic blood pressure (DBP), mean arterial blood pressure (MABP), and heart rate (HR) shown in FIGS. 15A-D.
Apelin peptides were delivered systemically via the right internal jugular vein while blood pressure (BP) and heart rate (HR) were continuously monitored in the aorta cannulated via the right carotid artery. All N-terminally extended apelin peptides, except 58, show pronounced and time-stable blood pressure lowering effects (FIGS. 15a-d). […] This correlates with the results obtained from the Ca^2+ mobilization assay.

in vitro = settings: human, plasma
isolated rat hearts = assay: Langendorff isolated heart, ischemia-reperfusion injury; settings: ex vivo heart, 30 min ischemia, peptide at start of reperfusion for 10 min at 1 pM
Experimental: The ex vivo heart was assessed for a variety of parameters (heart rate (HR); left ventricle developed pressure (LVDP); maximum derivative of change in systolic pressure over time (max dP/dt); minimum derivative of change in diastolic pressure over time (min dP/dt); and rate-pressure product (RPP)) indicative of general heart function and performance (FIG. 11).
Langendorff heart perfusion and ischemia-reperfusion injury were prepared and cardiac function was measured. Mice were heparinized and anaesthetized with 1.5-2% isoflurane inhalation. The heart was excised, mounted on a Langendorff system, and perfused at a consistent pressure of 80 mmHg with modified Krebs-Henseleit solution (116 mM NaCl, 3.2 mM KCl, 2.0 mM CaCl2), 1.2 mM MgSO4, 25 mM NaHCO3, 1.2 mM KH2PO4, 11 mM glucose, 0.5 mM EDTA and 2 mM pyruvate), which was kept at 37° C. and continuously oxygenated with 95% O2 and 5% CO2 which maintained the perfusion buffer at pH 7.4. After stabilization and 10 min baseline recording, global ischemia was induced for 30 min followed by 40 min of reperfusion. Apelin 17 (2) or apelin peptides (11, 17, 18, or 19) were given at the start of reperfusion for 10 min at a concentration of 1 pM. Left ventricular functions were obtained continuously by PowerLab system (ADInstruments, Australia). Data was reported as mean value of every 5 min. Left ventricular functions were reported as: Left Ventricular Developed Pressure (LVDP); Heart rate (HR); maximum derivative of change in systolic pressure over time (max dP/dt); minimum derivative of change in diastolic pressure over time (min dP/dt); and Rate Pressure Product (RPP).

cleaved bond [1] | remaining at 0.5 h, 80 µM (in vitro) [%] | remaining at 1 h, 80 µM (in vitro) [%] | Molecule | further results
Nle11-Aib12, minor |  |  | pGlu-Arg-Pro-Arg-NMeLeu-Ser-His-Lys-Gly-Pro-Nle-Aib-paraBrPhe | 
Nle11-Aib12, minor |  |  | pGlu-Arg-Pro-αMeArg-Leu-Ser-His-Lys-Gly-Pro-Nle-Aib-paraBrPhe | 
Nle15-Aib16, minor |  |  | Lys-Phe-Arg-Arg-Gln-Arg-Pro-αMeArg-Leu-Ser-His-Lys-Gly-Pro-Nle-Aib-paraBrPhe | 
 | 77 ± 19 | 65 ± 14 | CCCC[C@H](NC(=O)[C@@H]1CCCN1C(=O)CNC(=O)[C@H](CCCCN)NC(=O)[C@H](Cc1c[nH]cn1)NC(=O)[C@H](CO)NC(=O)[C@H](CC(C)C)NC(=O)[C@H](CCCNC(=N)N)NC(=O)[C@@H]1CCCN1C(=O)[C@H](CCCNC(=N)N)NC(=O)[C@@H]1CCC(=O)N1)C(=O)NC(C)(C)C(=O)N[C@@H](Cc1ccc(Br)cc1)C(=O)O [Peptide 4] ([pGlu]RPRLSHKGP[Nle][Aib][Phe(4-Br)]-OH; C-terminus assumed) | weaker affinity compared to 1, by a factor ([2]; ratio of Ki to native 1): 6; blood pressure lowering (hypotensive) effect (anesthetized mice): potent physiological effects
 | 19 ± 5 | 2 ± 1 | CCCC[C@H](NC(=O)[C@@H]1CCCN1C(=O)CNC(=O)[C@H](CCCCN)NC(=O)[C@H](Cc1c[nH]cn1)NC(=O)[C@H](CO)NC(=O)N(CC(C)C)NC(=O)[C@H](CCCNC(=N)N)NC(=O)[C@@H]1CCCN1C(=O)[C@H](CCCNC(=N)N)NC(=O)[C@@H]1CCC(=O)N1)C(=O)NC(C)(C)C(=O)N[C@@H](Cc1ccc(Br)cc1)C(=O)O [Peptide 18, pGlu-Arg-Pro-Arg-azaLeu-Ser-His-Lys-Gly-Pro-Nle-Aib-paraBrPhe] ([pGlu]RPR[azaLeu]SHKGP[Nle][Aib][Phe(4-Br)]-OH; C-terminus assumed) | Ki [2]: 0.13 ± 0.063 nM; receptor binding affinity (in words) [2]: modest improvement in receptor binding; ability to rescue the heart from ischemic reperfusion injury (isolated rat hearts): behaved comparably to that of the negative saline control
Nle15-Aib16, minor |  |  | Lys-Phe-Arg-Arg-Gln-Arg-Pro-Arg-azaLeu-Ser-His-Lys-Gly-Pro-Nle-Aib-paraBrPhe | 
Nle11-Aib12, minor |  |  | pGlu-Arg-Pro-Arg-αMeLeu-Ser-His-Lys-Gly-Pro-Nle-Aib-paraBrPhe | 
 | 80 ± 3 | 80 ± 4 | CCCC[C@H](NC(=O)[C@@H]1CCCN1C(=O)CNC(=O)[C@H](CCCCN)NC(=O)[C@H](Cc1c[nH]cn1)NC(=O)[C@H](CO)NC(=O)[C@@H](CC(C)C)NC(=O)[C@H](CCCNC(=N)N)NC(=O)[C@@H]1CCCN1C(=O)[C@H](CCCNC(=N)N)NC(=O)[C@H](CCC(N)=O)NC(=O)[C@H](CCCNC(=N)N)NC(=O)[C@H](CCCNC(=N)N)NC(=O)[C@H](Cc1ccccc1)NC(=O)[C@@H](N)CCCCN)C(=O)NC(C)(C)C(=O)N[C@@H](Cc1ccc(Br)cc1)C(=O)O [Peptide 9] (H-KFRRQRPR[dL]SHKGP[Nle][Aib][Phe(4-Br)]-OH; N-terminus and C-terminus assumed) | Ki [2]: 0.14 ± 0.056 nM; effect on heart rate (HR) (anesthetized mice): had an impact on the heart rate; blood pressure lowering (hypotensive) effect (anesthetized mice): inactivity; also recorded: without inducing any vasoactive effects
Nle11-Aib12, minor |  |  | pGlu-Arg-Pro-azaArg-Leu-Ser-His-Lys-Gly-Pro-Nle-Aib-paraBrPhe | 
 | 45 ± 6 | 38 ± 3 | CCCC[C@H](NC(=O)[C@@H]1CCCN1C(=O)CNC(=O)[C@H](CCCCN)NC(=O)[C@H](Cc1c[nH]cn1)NC(=O)[C@H](CO)NC(=O)[C@](C)(CC(C)C)NC(=O)[C@H](CCCNC(=N)N)NC(=O)[C@@H]1CCCN1C(=O)[C@H](CCCNC(=N)N)NC(=O)[C@@H]1CCC(=O)N1)C(=O)NC(C)(C)C(=O)N[C@@H](Cc1ccc(Br)cc1)C(=O)O [Peptide 14, pGlu-Arg-Pro-Arg-αMeLeu-Ser-His-Lys-Gly-Pro-Nle-Aib-paraBrPhe] ([pGlu]RPR[αMeL]SHKGP[Nle][Aib][Phe(4-Br)]-OH; C-terminus assumed) | Ki [2]: 0.17 ± 0.05 nM; receptor binding affinity (in words) [2]: modest improvement in receptor binding; effect on heart rate (HR) (anesthetized mice): significant and pronounced effect of increasing the murine HR; also recorded: had an impact on the heart rate; blood pressure lowering (hypotensive) effect (anesthetized mice): without inducing any vasoactive effects
Nle11-Aib12, minor |  |  | pGlu-Arg-Pro-Arg-azaLeu-Ser-His-Lys-Gly-Pro-Nle-Aib-paraBrPhe | 
Nle15-Aib16, minor |  |  | Lys-Phe-Arg-Arg-Gln-Arg-Pro-Arg-αMeLeu-Ser-His-Lys-Gly-Pro-Nle-Aib-paraBrPhe | 
